Where two headings read alike, the source gives them in different places.
Biological target: Human GLP-1R (Homo sapiens, UniProt P43220)
Experiment: GLP-1R agonist activity, HTRF cAMP detection in 293A GFP-GLP-1R cells
Design: Emax: dose or concentration left out as unconfirmed
Conditions: for Emax: 293A
Procedure: GLP-1R-mediated agonist activity was determined by cell-based assays using a homogeneous time-resolved fluorescence (i.e., HTRF)-based cAMP detection kit, which measures the level of cAMP in cells. The method was a competitive immunoassay. It enabled direct pharmacological characterization of compounds acting on Gs-coupled receptors in adherent or suspending cells.
The standard curve of native cAMP or unlabeled cAMP produced by cells competed with d2-labeled cAMP red receptors to bind monoclonal anti-cAMP Eu3+ cryptate donors, and the specific signal was inversely proportional to the concentration of cAMP in standard or tested samples.
Human GLP-1R encoding sequence (NCBI reference sequence NP_002053.3) was subcloned into pEGFP-N1 (tsingke), and the cell line stably expressing the receptor was isolated. The expression density of GLP-1R was confirmed by the expression of GFP observed under a fluorescence microscope.
Cells were collected from a T25 tissue culture flask and centrifuged at room temperature at 1000 rpm for 5 minutes. The cell precipitates were then re-suspended in 1 mL of the stimulating buffer. 20 μL sample of cell suspension was counted on a counter STAR IC 1000 to determine the cell viability and the cell count per mL. The remaining cell suspension was then regulated with the stimulating buffer to deliver 2000 living cells per well using a multi-channel pipette. 5 μL of the cell suspension was added to each well of the plate which already contained the compound. The plate was sealed and incubated at 37° C. with 5% CO2 for 30 minutes.
After 30 minutes of incubation, 5 μL of d2-labeled cAMP and 5 μL of anti-cAMP cryptate (both 1: 20 diluted in the cell lysis buffer) were added to each well of the plate. The plate was then incubated at room temperature for 60 minutes, and the changes of HTRF signal were read with Tecan Spark reader: absorbance values at 340 nm (excitation)/at 615 nm and 665 nm (emission). Raw data were converted into nM cAMP by interpolation from the cAMP standard curve, and the effect in percentage was determined relative to the saturated concentration of the complete agonist GLP-17˜37 (400 nM) contained in each plate. Determination of EC50 was performed based on the agonist dose-response curve, which was analyzed using a four-parameter logical dose-response equation with a curve fitting program.
The test data presented the results in the form of a geometric mean (EC50s) based on the number of repetition times.

Human GLP-1R, sequence (P43220 24-463): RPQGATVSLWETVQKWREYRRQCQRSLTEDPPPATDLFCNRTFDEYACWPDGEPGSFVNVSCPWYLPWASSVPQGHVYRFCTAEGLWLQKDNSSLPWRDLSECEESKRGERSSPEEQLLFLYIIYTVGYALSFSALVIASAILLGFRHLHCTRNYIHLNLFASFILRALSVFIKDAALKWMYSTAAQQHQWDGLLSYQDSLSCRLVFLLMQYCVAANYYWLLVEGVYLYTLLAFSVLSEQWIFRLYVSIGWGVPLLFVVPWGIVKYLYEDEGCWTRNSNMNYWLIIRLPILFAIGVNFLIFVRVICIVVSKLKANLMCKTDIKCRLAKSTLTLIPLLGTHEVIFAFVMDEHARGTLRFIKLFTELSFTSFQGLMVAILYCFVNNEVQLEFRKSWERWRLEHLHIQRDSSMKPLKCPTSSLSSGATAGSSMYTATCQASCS

Compound | EC50 [nM] | Emax [%] | EC50 (cAMP level, 293A GFP-GLP-1R cells, 30 min incubation, geometric mean) [nM]
CN1CCC(C(=O)c2ccc(COc3cccc(C4CCN(Cc5nc6ccc(C(=O)O)cc6n5C[C@@H]5CCO5)CC4)n3)c(F)c2)CC1 [Compound 29, (S)-2-((4-(6-((2-fluoro-4-(1-methylpiperidin-4-carbonyl)benzyl)oxy)pyridin-2-yl)piperidin-1-yl)methyl)-1-(oxetan-2-ylmethyl)-1H-benzo[d]imidazole-6-carboxylic acid] |  | 7.12 | 
CCOc1cc(C(C)=O)ccc1COc1cccc(C2CCN(Cc3nc4ccc(C(=O)O)cc4n3C[C@@H]3CCO3)CC2)n1 [Compound 30, (S)-2-((4-(6-((4-acetyl-2-ethoxybenzyl)oxy)pyridin-2-yl)piperidin-1-yl)methyl)-1-(oxetan-2-ylmethyl)-1H-benzo[d]imidazole-6-carboxylic acid] | 0.91 | 112 | 
COc1cc(C(=O)C(C)C)ccc1COc1cccc(C2CCN(Cc3nc4ccc(C(=O)O)cc4n3C[C@@H]3CCO3)CC2)n1 [Compound 32, (S)-2-((4-(6-((4-isobutyryl-2-methoxybenzyl)oxy)pyridin-2-yl)piperidin-1-yl)methyl)-1-(oxetan-2-ylmethyl)-1H-benzo[d]imidazole-6-carboxylic acid] | 416 | 102 | 
CCn1cnc(Cn2c(CN3CCC(c4cccc(OCc5ccc(C(=O)C6CC6)cc5F)n4)CC3)nc3ccc(C(=O)O)cc32)c1 [Compound 35, 2-((4-(6-((4-(cyclopropanecarbonyl)-2-fluorobenzyl)oxy)pyridin-2-yl)piperidin-1-yl)methyl)-1-((1-ethyl-1H-imidazol-4-yl)methyl)-1H-benzo[d]imidazole-6-carboxylic acid] | 32 |  | 
Cc1cc(C(=O)C2CC2)ccc1COc1cccc(C2CCN(Cc3nc4ccc(C(=O)O)nc4n3C[C@@H]3CCO3)CC2)n1 [Compound 40, (S)-2-((4-(6-((4-(cyclopropanecarbonyl)-2-methylbenzyl)oxy)pyridin-2-yl)piperidin-1-yl)methyl)-3-(oxetan-2-ylmethyl)-3H-imidazo[4,5-b]pyridine-5-carboxylic acid] | 0.07 | 94.7 | 
O=C(O)c1ccc2nc(CC3CCN(c4cccc(OCc5ccc(C(=O)C6CC6)cc5F)n4)CC3)n(C[C@@H]3CCO3)c2c1 [Compound 42, (S)-2-((1-(6-((4-(cyclopropanecarbonyl)-2-fluorobenzyl)oxy)pyridin-2-yl)piperidin-4-yl)methyl)-1-(oxetan-2-ylmethyl)-1H-benzo[d]imidazole-6-carboxylic acid] | 0.23 |  | 
CC(C)C(=O)c1ccc(COc2cccc(C3CCN(Cc4nc5ccc(C(=O)O)cc5n4C[C@@H]4CCO4)CC3)n2)c(F)c1 [Compound 43, (S)-2-((4-(6-((2-fluoro-4-isobutyrylbenzyl)oxy)pyridin-2-yl)piperidin-1-yl)methyl)-1-(oxetan-2-ylmethyl)-1H-benzo[d]imidazole-6-carboxylic acid] |  |  | 1.4
O=C(O)c1ccc2nc(CN3CCC(c4cccc(OCc5ccc(C(=O)C6CC6)cc5Cl)n4)CC3)n(C[C@@H]3CCO3)c2c1 [Compound 44, (S)-2-((4-(6-((2-chloro-4-(cyclopropanecarbonyl)benzyl)oxy)pyridin-2-yl)piperidin-1-yl)methyl)-1-(oxetan-2-ylmethyl)-1H-benzo[d]imidazole-6-carboxylic acid] | 0.02 |  | 
O=C(O)c1ccc2nc(CN3CCC(c4cccc(OCc5ccc(C(=O)C6CC6)cc5F)n4)CC3)n(CC3(CF)CC3)c2c1 [Compound 47] | 0.01 |  | 
O=C(O)c1ccc2nc(Cc3ccc(-c4cccc(OCc5ccc(C(=O)C6CC6)cc5F)n4)cc3F)n(CC3(CF)CC3)c2c1 [Compound 48] | 0.065 |  | 

The remaining lines, values ahead:

EC50 [nM] | Emax [%] | EC50 (cAMP level, 293A GFP-GLP-1R cells, 30 min incubation, geometric mean) [nM] | Compound
0.3 | 95.2 |  | CC(=O)c1ccc(COc2cccc(N3CCN(Cc4nc5ccc(C(=O)O)cc5n4C[C@@H]4CCO4)[C@@H](C)C3)n2)c(F)c1 [Compound 28, 2-(((S)-4-(6-((4-acetyl-2-fluorobenzyl)oxy)pyridin-2-yl)-2-methylpiperazin-1-yl)methyl)-1-(((S)-oxetan-2-yl)methyl)-1H-benzo[d]imidazole-6-carboxylic acid]
18.5 | 75.4 |  | CC(=O)c1ccc(COc2cccc(C3CCN(Cc4nc5ccc(C(=O)O)cc5n4C[C@@H]4CCO4)CC3)n2)c(OC2CC2)c1 [Compound 31, (S)-2-((4-(6-((4-acetyl-2-cyclopropoxybenzyl)oxy)pyridin-2-yl)piperidin-1-yl)methyl)-1-(oxetan-2-ylmethyl)-1H-benzo[d]imidazole-6-carboxylic acid]
1.59 | 92.9 |  | O=C(O)c1ccc2nc(CN3CCC(c4cccc(OCc5ccc(C(=O)C6CC6)cc5F)n4)CC3)n(C[C@@H]3CCO3)c2n1 [Compound 33, (S)-2-((4-(6-((4-(cyclopropanecarbonyl)-2-fluorobenzyl)oxy)pyridin-2-yl)piperidin-1-yl)methyl)-3-(oxetan-2-ylmethyl)-3H-imidazo[4,5-b]pyridine-5-carboxylic acid]
20.4 | 84.9 |  | COc1cc(C(=O)C2CC2)cc(F)c1COc1cccc(C2CCN(Cc3nc4ccc(C(=O)O)cc4n3C[C@@H]3CCO3)CC2)n1 [Compound 36, (S)-2-((4-(6-((4-(cyclopropanecarbonyl)-2-fluoro-6-methoxybenzyl)oxy)pyridin-2-yl)piperidin-1-yl)methyl)-1-(oxetan-2-ylmethyl)-1H-benzo[d]imidazole-6-carboxylic acid]
228 | 68.5 |  | COc1cc(COc2cccc(C3CCN(Cc4nc5ccc(C(=O)O)cc5n4C[C@@H]4CCO4)CC3)n2)c(F)cc1C(=O)C1CC1 [Compound 37, (S)-2-((4-(6-((4-(cyclopropanecarbonyl)-2-fluoro-5-methoxybenzyl)oxy)pyridin-2-yl)piperidin-1-yl)methyl)-1-(oxetan-2-ylmethyl)-1H-benzo[d]imidazole-6-carboxylic acid]
> 1000 | 85.9 |  | Cc1cc(COc2cccc(C3CCN(Cc4nc5ccc(C(=O)O)cc5n4C[C@@H]4CCO4)CC3)n2)c(F)cc1C(=O)C1CC1 [Compound 38, (S)-2-((4-(6-((4-(cyclopropanecarbonyl)-2-fluoro-5-methylbenzyl)oxy)pyridin-2-yl)piperidin-1-yl)methyl)-1-(oxetan-2-ylmethyl)-1H-benzo[d]imidazole-6-carboxylic acid]
3.38 | 87.9 |  | C[C@H]1CN(c2cccc(OCc3ccc(C(=O)C4CC4)cc3F)n2)CCN1Cc1nc2ccc(C(=O)O)cc2n1C[C@@H]1CCO1 [Compound 39, 2-(((S)-4-(6-((4-(cyclopropanecarbonyl)-2-fluorobenzyl)oxy)pyridin-2-yl)-2-methylpiperazin-1-yl)methyl)-1-(((S)-oxetan-2-yl)methyl)-1H-benzo[d]imidazole-6-carboxylic acid]
> 1000 | 77.3 |  | Cc1cc(C(=O)C2CC2)ccc1COc1cccc(N2CCN(Cc3nc4ccc(C(=O)O)cc4n3C[C@@H]3CCO3)[C@@H](C)C2)n1 [Compound 41, 2-(((S)-4-(6-((4-(cyclopropanecarbonyl)-2-methylbenzyl)oxy)pyridin-2-yl)-2-methylpiperazin-1-yl)methyl)-1-(((S)-oxetan-2-yl)methyl)-1H-benzo[d]imidazole-6-carboxylic acid]
0.013 |  |  | N#CCC1(Cn2c(CN3CCC(c4cccc(OCc5ccc(C(=O)C6CC6)cc5F)n4)CC3)nc3ccc(C(=O)O)cc32)CC1 [Compound 45]
0.02 |  |  | O=C(O)c1ccc2nc(Cc3ccc(-c4cccc(OCc5ccc(C(=O)C6CC6)cc5F)n4)cc3F)n(C[C@@H]3CCO3)c2c1 [Compound 46]
